Columns and labels:
Experiment in all cases: Pre-emergent Test I herbicidal activity
Format in all cases: in vivo
Conditions in all cases: Table 5, 140 g ai/ha
[1] = system: CHEAL: lambsquarters (Chenopodium album)
Description: (§1) Seeds of the desired test plant species were planted in a soil matrix prepared by mixing a loam soil (43 percent silt, 19 percent clay, and 38 percent sand, with a pH of about 8.1 and an organic matter content of about 1.5 percent) and sand in a 70 to 30 ratio. The soil matrix was contained in plastic pots with a surface area of 113 square centimeters. When required to ensure good germination and healthy plants, a fungicide treatment and/or other chemical or physical treatment was applied.
(§2) A weighed amount, determined by the highest rate to be tested, of each test compound was placed in a 25 mL glass vial and was dissolved in 6 mL of a 97:3 v/v (volume/volume) mixture of acetone and DMSO to obtain concentrated stock solutions. […] The stock solutions obtained were diluted with 18 mL of a 0.1% v/v aqueous solution of Tween® 20 surfactant to obtain spray solutions containing the highest application rate. Additional application rates were obtained by serial dilution of 12 mL of the high rate solution into a solution containing 3 mL of 97:3 v/v mixture of acetone and DMSO and 9 mL of the 0.1% v/v aqueous solution of Tween® 20 surfactant to obtain ½×, ¼×, ⅛× and 1/16× rates of the high rate. Compound requirements are based upon a 12 mL application volume at a rate of 187 L/ha. Formulated compounds were applied to the plant material with an overhead Mandel track sprayer equipped with 8002E nozzles calibrated to deliver 187 L/ha over an application area of 0.503 square meters at a spray height of 18 inches ([…]) above the soil surface. Control plants were sprayed in the same manner with the solvent blank.
(§3) The treated pots and control pots were placed in a greenhouse maintained with an approximate 15 hour photoperiod and temperatures of about 23-29° C. during the day and 22-28° C. during the night. Nutrients and water were added on a regular basis and supplemental lighting was provided with overhead metal halide 1000-Watt lamps as necessary. The water was added by top-irrigation. After 20-22 days, the condition of the test plants that germinated and grew as compared with that of the untreated plants that emerged and grew was determined visually and scored on a scale of 0 to 100 percent where 0 corresponds to no injury and 100 corresponds to complete kill or no emergence.

[2] = system: AMARE: pigweed, redroot (Amaranthus retroflexus)
Description: as §1, §2, §3

[3] = system: EPHHL: poinsettia, wild (Euphorbia heterophylla)
Description: as §1, §2, §3

COc1c(N)cc(-c2ccc(Cl)cc2)nc1C(=O)O [Compound 46]
Visual Growth Reduction (%)-21 Days after Application CHEAL [1]: 95% | Visual Growth Reduction (%)-21 Days after Application AMARE [2]: 95% | Visual Growth Reduction (%)-21 Days after Application EPHHL [3]: 100%

Reference: US9518018B2, “3-alkoxy, thioalkyl and amino-4-amino-6-(substituted)picolinates and their use as herbicides” (Dow AgroSciences LLC, priority 2011, dated 2016)
